Measurements: patent US8900194B2, “Microneedle devices and microneedle delivery apparatus” (3M Innovative Properties Company, priority 2002, dated 2014)

Settings: human, 0 h

In the case of `O=[N+]([O-])OCC(CO[N+](=O)[O-])O[N+](=O)[O-]` [Nitroglycerin, nitroglycerin], the “Nitroglycerin Cumulative Flux” value is reported as 0 μg/cm^2.
